From US10513529B2, “1,2,4-triazolo-[3,4-b]-1,3,4-thiadiazole derivatives” (GALENICA S.A., priority 2016, dated 2019) come the findings set out here.

The term GI50 denotes the concentration at which growth is held to half of that of the control. A low value points to more potent growth inhibition. The term IC50 denotes the concentration that inhibits the measured activity by half. A low value points to greater potency. For orientation: TGI means the concentration at which net growth stops. By LD50 is commonly meant the dose expected to kill half of the subjects tested. A higher LD50 goes with lower toxicity.

Data set [1] concerns UWB1.289 human ovarian cancer cell line (mutant BRCA1). Briefly: MTT cytostatic-cytotoxic activity, UWB1.289. In kind it is cell-based. The note with it: for GI50 / IC50: Homo sapiens; for GI50: UWB1289, 48 h; for GI50 / TGI: UWB1.289, 48 h treatment; for IC50: UWB1289, UWB1.289, 48 h treatment, kills 50% of the cells. Put shortly: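 UWB1.289 cells (BRCA1-null, p53-mutant) were seeded at 1×10^4 cells/ml per well and treated after 24 h with 1-100 μmol/l compound for 48 h, in triplicate. Viability was read by MTT (3 h, DMSO solubilisation, 540 nm). GI50, TGI and IC50 came from treated versus 24 h and 72 h control absorbances.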

The subject of data set [2] is T-47D human breast cancer cell line. Briefly: MTT cytostatic-cytotoxic activity, T-47D. The note with it: 48 h treatment; for GI50 / IC50: Homo sapiens, T47D; for GI50: 48 h; for IC50: kills 50% of the cells. Format: cell-based.
In data set [3] the test system is PC-3 human hormone-resistant prostate cancer cell line. Briefly: MTT cytostatic-cytotoxic activity, PC-3. In kind it is cell-based. The settings on record: PC-3, 48 h treatment; for GI50 / IC50: Homo sapiens; for IC50: kills 50% of the cells.
Data set [4] relates to C57BI/6 mice. Briefly: in vivo. The settings on record: i.p., acute toxicity. Put shortly:
(§1)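 Acute toxicity in male and female C57BI/6 mice, judged by lethality. Compounds given i.p. at several doses starting at 100mg/kg. Dosed as a suspension in corn oil after initial dissolution in 10% DMSO.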

Data set [5] can be described thus: in vivo. The note with it: both sexes, mouse, in vivo, ip; C57BI/6 mice, acute toxicity. Put shortly:
as §1

The test system of data set [6] is MOLT-4 human acute T-leukemia cell line. Put plainly: MTT cytostatic-cytotoxic activity, MOLT-4. Format: cell-based. The settings on record: MOLT-4, 48 h treatment; for GI50 / IC50: Homo sapiens; for IC50: kills 50% of the cells.
Data set [7] concerns OVCAR-3 human ovarian cancer cell line. Put plainly: MTT cytostatic-cytotoxic activity, OVCAR-3. The settings on record: OVCAR-3, 48 h treatment; for GI50 / IC50: Homo sapiens; for IC50: kills 50% of the cells. In kind it is cell-based. Put shortly:
(§2)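 SKOV-3 and OVCAR-3 cells seeded at 1×10^4 cells/ml, treated after 24 h with 1-100 μmol/l compound for 48 h in triplicate. Viability by MTT (3 h, 37 °C), absorbance at 540 nm; GI50, TGI and IC50 computed from treated versus 24 h and 72 h control readings.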

The subject of data set [8] is SKOV-3 human ovarian cancer cell line. Briefly: MTT cytostatic-cytotoxic activity, SKOV-3. Format: cell-based. The note with it: for GI50 / IC50: Homo sapiens, SK-OV-3, SKOV-3, 48 h treatment; for IC50: kills 50% of the cells; for TGI: SKOV-3, 48 h treatment. In outline: as §2

Regarding `COc1cc(Cc2nnc3sc(-c4ccc(Cl)cc4)nn23)c(S(=O)(=O)N(C)C)cc1OC` [TS63, 3-[2-(N,N-dimethylsulfamoyl)-4,5-dimethoxybenzyl]-6-(4-chlorophenyl)-1,2,4-triazolo[3,4-b]-1,3,4-thiazole], the GI50 in data set [1] came to 30 µM; in data set [2] it was 27 µM; in data set [3] it was 20 µM; in data set [6], 6 µM; in data set [7], 3 µM; in data set [8] it was 8 µM. In addition, the IC50 in data set [1] is over 100 µM; in data set [2], over 100 µM; in data set [3] it was over 100 µM; in data set [6] it was 78 µM; in data set [7], over 100 µM; in data set [8] it was over 100 µM. The TGI in data set [1] is 50 µM; in data set [2], 55 µM; in data set [3] it was 45 µM; in data set [6] it was 45 µM; in data set [7], 32 µM; in data set [8], 38 µM. In data set [4], this molecule gave an LD10 of over 500 mg/kg. Further, the LD50 in data set [5] worked out at 430 mg/kg.

`COc1cc(Cc2nnc3sc(-c4ccc(N)cc4)nn23)c(S(=O)(=O)N(C)C)cc1OC` [TS71, 3-[2-(N,N-dimethylsulfamoyl)-4,5-dimethoxybenzyl]-6-(4-aminophenyl)-1,2,4-triazolo[3,4-b]-1,3,4-thiazole]: the GI50 was over 100 µM in data set [1]; over 100 µM in data set [2]; over 100 µM in data set [3]; 55 µM in data set [6]; 97 µM in data set [7]; over 100 µM in data set [8]. Moreover, the IC50 in data set [1], in data set [2], in data set [3], in data set [6], in data set [7] and in data set [8] was over 100 µM in each case. The TGI in data set [1], in data set [2], in data set [3], in data set [6], in data set [7] and in data set [8] was over 100 µM in each case. Moreover, in data set [4], the LD10 is over 500 mg/kg. The LD50 in data set [4] and in data set [5] was over 500 mg/kg in each case.

For the molecule `COc1cc(Cc2nnc3sc(-c4ccccc4)nn23)c(S(=O)(=O)N(C)C)cc1OC` [TS167, 3-[2-(N,N-dimethylsulfamoyI)-4,5-dimethoxy-benzyl]-6-phenyl-1,2,4-triazolo[3,4-b]-1,3,4-thiazole], the GI50 is 56 µM in data set [1]; 52 µM in data set [2]; 62 µM in data set [3]; 42 µM in data set [6]; 65 µM in data set [7]; 80 µM in data set [8]. Further, the IC50 in data set [1], in data set [2], in data set [3], in data set [6], in data set [7] and in data set [8] was over 100 µM in each case. For the same molecule, the TGI in data set [1], in data set [2], in data set [3], in data set [6], in data set [7] and in data set [8] was over 100 µM throughout. In addition, the LD10 in data set [4] is over 500 mg/kg. The LD50 in data set [4] and in data set [5] was over 500 mg/kg each time.
